{"source": "patent US6448240B1", "about": "“Synergistic fungicidal and/or bactericidal composition” (Aventis CropScience, S.A., priority 1997, dated 2002)", "system": "Plasmopara viticola (grapevine downy mildew)", "assay": "In-vivo test of famoxadone and fosetyl-aluminium on grapevine downy mildew, preventative treatment 5 days before inoculation", "set-up": "species or system Plasmopara viticola on Vitis vinifera cv. Chardonnay", "settings": "5-day-preventative spray on grapevine cuttings; evaluated 7 days after inoculation; 3 replications", "protocol": "Example 1: In-vivo test of the combination of famoxadone and fosetyl-aluminium on Plasmopara viticola (grapevine downy mildew) by preventative treatment 5 days before inoculation. Dispersible granules of 50% compound A (famoxadone) and dispersible granules of 80% compound B (fosetyl-aluminium) are used. Dilute suspensions are prepared from these compositions by diluting them with water, and the two liquids are mixed in such a way that different ratios of the two products famoxadone and fosetyl are obtained. The A/B ratios studied were selected between 1/10 and 1/1, that is to say equalling 0.1-0.2 and 1. Grapevine cuttings (Vitis vinifera), cv. Chardonnay are grown in pots. When these plants are 2 months old (8- to 10-leaf stage, height 10 to 15 cm), they are treated by being sprayed with the suspension above. […] These spores are suspended at 100,000 units per cm^3 of inoculum. Inoculation is performed by spraying the underside of the leaves with the inoculum. The inoculated plants are then incubated for seven days at 20-22° C. and a relative humidity of 90-100% under natural light. The test is evaluated 7 days after inoculation by comparing the plants with the control plants."}
{"smiles": "C[C@@]1(c2ccc(Oc3ccccc3)cc2)OC(=O)N(Nc2ccccc2)C1=O", "note": "(racemic) [famoxadone, 5-methyl-5-(4-phenoxyphenyl)-3-(phenylamino-2,4-oxazolidinedione)]", "values": [{"measurement": "ED70 (effective dose which has a 70% control effect on the disease)", "value": 2, "unit": "µg/mL"}, {"measurement": "ED90 (effective dose which has a 90% control effect on the disease)", "value": 5.5, "unit": "µg/mL"}]}
{"smiles": "CCO[PH](=O)O", "note": "[fosetyl - aluminium, fosetyl-aluminium]", "values": [{"measurement": "ED70 (effective dose which has a 70% control effect on the disease)", "value": ">2000", "unit": "µg/mL"}, {"measurement": "ED90 (effective dose which has a 90% control effect on the disease)", "value": ">2000", "unit": "µg/mL"}]}
